From patent US3932646A, “Pharmaceutical compositions containing unsymmetrical esters of 1,4-dihydropyridine 3,5-dicarboxylate” (Farbenfabriken Bayer AG, priority 1971, dated 1976) come the findings set out here.

Some results are limits rather than exact numbers.

What is called LD50 is the dose at which mortality reaches 50%. Higher therefore signals a less toxic substance.

Common to all, as to format: in vivo
Data set [1] in a line: Toxicity (Mouse), conventional LD50 determination p.o. Conditions: in vivo, po. An excerpt:
(§1) The pharmacological properties of these compounds are conveniently observed in well-known animal models which parallel the desired clinical response. Similarly toxicity is low, as measured for example in the conventional LD50 determination.

In the next data set the test system is coronary vessels. Nature of the data set: Dosage at which a coronary effect is observed, i.v. The conditions noted are these: for minimal effective dose: iv.
Another data set has as its system hypertensive rat. Nature of the data set: Blood pressure effect on hypertensive rat p.o. The conditions noted are these: given as "from" dose; for minimal effective dose: po, read-out: Blood pressure effect on hypertensive rat (dose from which the effect is seen).
From the text: as §1

A further data set deals with Mouse. Kind of data set: Toxicity (Mouse), conventional LD50 determination p.o.
From the text: as §1

Turning to `C=CCOC(=O)C1=C(C)NC(C)=C(C(=O)OCC)C1c1ccccc1C` (stereo not shown) [Example 1, 2,6-dimethyl-4-(2'-methylphenyl)-1,4-dihydropyridine-3,5-dicarboxylic acid 3-ethyl ester-5-allyl ester], the LD50 in data set [1] is greater than 3000 mg/kg. In addition, the minimal effective dose with coronary vessels is 0.05 mg/kg; in the data set with hypertensive rat it was no less than 10 mg/kg.
The matching figures for `C#CCOC(=O)C1=C(C)NC(C)=C(C(=O)OCC)C1c1ccccc1OC` (stereo not shown) [Example 18, 2,6-dimethyl-4-(2'-methoxyphenyl)-1,4-dihydropyridine-3,5-dicarboxylic acid 3-propargyl ester 5-ethyl ester]: 3000 mg/kg, 0.05 mg/kg and no less than 10 mg/kg.
Take `C=CCOC(=O)C1=C(C)NC(C)=C(C(=O)OCC)C1c1ccccc1Cl` (stereo not shown) [Example 8, 2,6-dimethyl-4-(2'-chlorophenyl)-1,4-dihydropyridine-3,5-dicarboxylic acid 3-ethyl ester-5-allyl ester]: the LD50 in data set [1] came out at 630 mg/kg. Moreover, the minimal effective dose with coronary vessels was 0.01 mg/kg; with hypertensive rat, no less than 1 mg/kg.
Molecule `C#CCOC(=O)C1=C(C)NC(C)=C(C(=O)OCC)C1c1ccc(C(=O)OCC)cc1` (stereo not shown) [Example 19, 2,6-dimethyl-4-(4'-carboxyethylphenyl)-1,4-dihydropyridine-3,5-dicarboxylic acid 3-propargyl ester 5-ethyl ester] registered an LD50 in data set [1] of 3000 mg/kg.
With `C=CCOC(=O)C1=C(C)NC(C)=C(C(=O)OC)C1c1cc(Br)c(OC)c(OC)c1` (stereo not shown) [Example 10, 2,6-dimethyl-4-(3', 4'-dimethoxy-5-bromophenyl)-1,4-dihydropyridine-3,5-dicarboxylic acid 3-methyl ester-5-allyl ester], in data set [1], the median lethal dose (LD50) was greater than 3000 mg/kg. Further, the minimal effective dose with coronary vessels was 5 mg/kg.
In data set [1], `C#CCOC(=O)C1=C(C)NC(C)=C(C(=O)OCC)C1c1ccccc1C` (stereo not shown) [Example 2, 2,6-dimethyl-4-(2'-methylphenyl)-1,4-dihydropyridine-3,5-dicarboxylic acid 3-ethyl ester-5-propargyl ester] yielded an LD50 of 800 mg/kg. Besides, the figures for the minimal effective dose in the data set on coronary vessels and in the data set with hypertensive rat were 0.01 mg/kg and no less than 10 mg/kg, respectively.
`C=CCOC(=O)C1=C(C)NC(C)=C(C(=O)OC(C)C)C1c1cccc(C(F)(F)F)c1` (stereo not shown) [Example 15, 2,6-dimethyl-4-(3'-trifluoromethylphenyl)-1,4-dihydropyridine-3,5-dicarboxylic acid 3-isopropyl ester 5-allyl ester] gave an LD50 in data set [1] greater than 3000 mg/kg. In addition, the minimal effective dose was 0.05 mg/kg in the data set with coronary vessels and no less than 3.1 mg/kg in the data set on hypertensive rat.
Turning to `C#CCOC(=O)C1=C(C)NC(C)=C(C(=O)OCC)C1c1ccccc1C(F)(F)F` (stereo not shown) [Example 4, 2,6-dimethyl-4-(2'-trifluoromethylphenyl)-1,4-dihydropyridine-3,5-dicarboxylic acid 3-ethyl ester-5-propargyl ester], in the data set with Mouse, the “Toxicity (Mouse) LD50” value stood at 200 mg/kg. Also, in the data set on coronary vessels, the “Dose at which a coronary effect is observed” value was found to be 0.005 mg/kg. The minimal effective dose with hypertensive rat is no less than 1 mg/kg.
Regarding `C=CCOC(=O)C1=C(C)NC(C)=C(C(=O)OCC)C1c1cccc(Cl)c1` (stereo not shown) [Example 17, 2,6-dimethyl-4-(3'-chlorophenyl)-1,4-dihydropyridine-3,5-dicarboxylic acid 3-allyl ester 5-ethyl ester], in data set [1], the LD50 is greater than 3000 mg/kg. For the same molecule, the figures for the minimal effective dose in the data set on coronary vessels and in the data set with hypertensive rat were 0.01 mg/kg and no less than 10 mg/kg, respectively.
In the case of `C#CCOC(=O)C1=C(C)NC(C)=C(C(=O)OC)C1c1ccccc1C(F)(F)F` (stereo not shown) [Example 12, 2,6-dimethyl-4-(2'-trifluoromethylphenyl)-1,4-dihydropyridine 3,5-dicarboxylic acid 3-propargyl ester 5-methyl ester], the “Toxicity (Mouse) LD50” value in the data set with Mouse is listed as 100 mg/kg. Besides, the “Dose at which a coronary effect is observed” value in the data set on coronary vessels stood at 0.003 mg/kg. In addition, in the data set with hypertensive rat, the “Blood pressure effect on hypertensive rat (dose from which the effect is seen)” value is on record as no less than 0.3 mg/kg.
In turn, `C#CCOC(=O)C1=C(C)NC(C)=C(C(=O)OC)C1c1ccccc1F` (stereo not shown) [Example 16, 2,6-dimethyl-4-(2'-fluorophenyl)-1,4-dihydropyridine-3,5-dicarboxylic acid 3-propargyl ester 5-methyl ester] had an LD50 in data set [1] of 200 mg/kg. Besides, the values for the minimal effective dose with coronary vessels and in the data set on hypertensive rat were 0.05 mg/kg and no less than 10 mg/kg, respectively.
The like results for `C#CCOC(=O)C1=C(C)NC(C)=C(C(=O)OC)C1c1ccccc1C(F)(F)F` (stereo not shown) [Example 6, 2,6-dimethyl-4-(2'-trifluoromethylphenyl)-1,4-dihydropyridine-3,5-dicarboxylic acid 3-methyl ester-5-propargyl ester] were, in that order, 200 mg/kg, 0.005 mg/kg and no less than 0.3 mg/kg.
Turning to `C#CCOC(=O)C1=C(C)NC(C)=C(C(=O)OC)C1c1ccccc1OC` (stereo not shown) [Example 11, 2,6-dimethyl-4-(2'-methoxyphenyl)-1,4-dihydropyridine-3,5-dicarboxylic acid 3-propargyl ester 5-methyl ester], the LD50 in data set [1] is greater than 3000 mg/kg. Further, the minimal effective dose in the data set on coronary vessels is 0.05 mg/kg; in the data set with hypertensive rat it was no less than 10 mg/kg.
In the case of `C=CCOC(=O)C1=C(C)NC(C)=C(C(=O)OCC)C1c1ccc(OC)c(OC)c1OC` (stereo not shown) [Example 9, 2,6-dimethyl-4-(2', 3', 4'-trimethoxyphenyl)-1,4-dihydropyridine-3,5-dicarboxylic acid 3-ethyl ester-5-allyl ester], the LD50 in data set [1] amounted to 3000 mg/kg.
For `C=CCOC(=O)C1=C(C)NC(C)=C(C(=O)OC)C1c1ccccc1F` (stereo not shown) [Example 3, 2,6-dimethyl-4-(2'-fluorophenyl)-1,4-dihydropyridine-3,5-dicarboxylic acid 3-methyl ester-5-allyl ester], the LD50 in data set [1] turned out to be 800 mg/kg. The figures for the minimal effective dose in the data set with coronary vessels and in the data set on hypertensive rat were 0.01 mg/kg and no less than 3.1 mg/kg, respectively.
As for `C#CCOC(=O)C1=C(C)NC(C)=C(C(=O)OCC)C1c1ccccc1C(F)(F)F` (stereo not shown) [Example 13, 2,6-dimethyl-4-(2'-trifluoromethylphenyl)-1,4-dihydropyridine-3,5-dicarboxylic acid 3-propargyl ester 5-ethyl ester], in the data set on Mouse, the “Toxicity (Mouse) LD50” value is given as 2000 mg/kg. Further, in the data set with coronary vessels, the “Dose at which a coronary effect is observed” value stood at 0.05 mg/kg. For the same molecule, the “Blood pressure effect on hypertensive rat (dose from which the effect is seen)” value in the data set on hypertensive rat is no less than 1.0 mg/kg.
As for `C=CCOC(=O)C1=C(C)NC(C)=C(C(=O)OCC)C1c1ccccc1C(F)(F)F` (stereo not shown) [Example 5, 2,6-dimethyl-4-(2'-trifluoromethylphenyl)-1,4-dihydropyridine-3,5-dicarboxylic acid 3-ethyl ester-5-allyl ester], the LD50 in data set [1] came to 630 mg/kg. The minimal effective dose in the data set with coronary vessels was 0.001 mg/kg; in the data set on hypertensive rat it was no less than 3.1 mg/kg.
`CCCOCCOC(=O)C1=C(C)NC(C)=C(C(=O)OCC)C1c1ccccc1OC` (stereo not drawn) [Example 7, 2,6-dimethyl-4-(2'-methoxyphenyl)-1,4-dihydropyridine-3,5-dicarboxylic acid 3-ethyl ester-5-β-propoxyethyl ester] registered an LD50 in data set [1] greater than 3000 mg/kg. Further, the results for the minimal effective dose with coronary vessels and in the data set on hypertensive rat were 0.05 mg/kg and no less than 31.5 mg/kg, respectively.
The like results for `CCOC(=O)C1=C(C)NC(C)=C(C(=O)OCCOC)C1c1ccccc1Cl` (stereo not drawn) [Example 14, 2,6-dimethyl-4-(2'-chlorophenyl)-1,4-dihydropyridine 3,5-dicarboxylic acid 3-β-methoxyethyl ester 5-ethyl ester] were, in that order, 1000 mg/kg, 0.01 mg/kg and no less than 3.1 mg/kg.
